Assay [1] deals with T1, human MC1r (Homo sapiens, UniProt Q01726). Nature of the assay: Test 3: receptor efficacy, cAMP enzyme immunoassay in stably transfected HEK cells expressing the human MC1r. It counts as cell-based. Further details: expressed in transfected cells. As to conditions: for Emax: HEK293, IBMX present, read-out: maximal efficacy Emax (max efficacy expressed as percent of αMSH); for EC50: IBMX present. The text has this:
The immune modulating effects of melanocortins are mediated through MC1r and/or MC3r stimulation on immune competent cells in tissues, organs and plasma. MC1r and/or MC3r are expressed in immune competent cells including monocytes, macrophages, neutrophils t-cells and dendritic cells. Stimulation of the MCr1 and/or MC3r is associated with attenuation of cytokine production and activation of pro-resolving effects. The binding affinity and the receptor efficacy (alternative expression is potency) of a given melanocortin together, in some embodiments, makes up the overall efficacy of a given compound.
Alternatively MCR1 receptor efficacy was tested in stably transfected HEK cells expressing the human MC1r. Cells were grown in Dulbecco's modified Eagle's medium 1885 supplemented with 10% fetal calf serum, 2 mm glutamine, and 0.01 mg/ml gentamicin. The expression plasmids containing the cDNAs encoding the wild-type or the mutated receptors were expressed after transfection according to the calcium phosphate precipitation method. The cells were kept frozen until the experiments where the cells was grown in RPMI 1640 medium supplemented with 2 mm 1-glutamine adjusted to contain 1.5 g/liter sodium bicarbonate, 4.5 g/liter glucose, 10 mm HEPES, 1.0 mm sodium pyruvate, and 10% fetal bovine serum.
Cells (2.5×10^5 cells per well) were incubated for 15 min at 37° C. in 1 ml of freshly prepared binding buffer supplemented with 5.10-4 M of the non-specific phosphodiesterase inhibitor 3-Isobutyl-1-methylxanthine (IBMX), 40 μg/ml bacitracin, and various concentrations of test compound. After incubation, cells were placed on ice, medium was removed, and cells lysed. Measurement of cAMP in the samples was conducted by use of a commercial cAMP Enzyme Immunoassay kit from Cayman Chemicals (Cat. No 581001). All cAMP concentrations were expressed relative to the total number of cells in the individual samples.

For assay [2], the system named is normal human lung fibroblasts (NHLF). As to conditions: TGFβ1-induced NHLF, at higher doses; U.S. provisional application 61/785,631; cited from earlier work.
The target of assay [3] is T1, human MC1r. Nature of the assay: Test 2: receptor efficacy, cAMP production (HTRF) in CHO-K1 cells expressing MC1r. As to conditions: nM of cAMP, IBMX 1 mM.
Protocol: CHO-Kl cells expressing either the MC1r or the MC3r grown in media without antibiotic were detached by gentle flushing with PBS-EDTA (5 mM EDTA), recovered by centrifugation and resuspended in assay buffer (KRH: 5 mM KCl, 1.25 mM MgSO4, 124 mM NaCl, 25 mM HEPES, 13.3 mM Glucose, 1.25 mM KH2PO4, 1.45 mM CaC12, 0.5 g/1 BSA).
12 μl of cells were mixed with 12 μl of the test compound at increasing concentrations in 96 wells plates and then incubated 30 min at room temperature. cAMP production was determined after addition of a lysis buffer and 1 hour incubation, by use of competitive immunoassay using cryptate-labeled anti-cAMP and d2-labeled cAMP (HTRF kit from CisBio) with Delta F percentage values calculated according to the manufacturer specification. Dose response curves were performed in parallel with test compounds, and reference compounds.
The HTRF technology is a titration assay based on a competition between labeled cAMP (exogenous) and cAMP produced by the cell after activation of the MCr. The dynamic range of the assay was 3-4 fold meaning that the linear range (which enables conversion from raw data to nM of cAMP) is within that range.
Data is presented as mean values.

T1 sequence (Q01726 whole entry): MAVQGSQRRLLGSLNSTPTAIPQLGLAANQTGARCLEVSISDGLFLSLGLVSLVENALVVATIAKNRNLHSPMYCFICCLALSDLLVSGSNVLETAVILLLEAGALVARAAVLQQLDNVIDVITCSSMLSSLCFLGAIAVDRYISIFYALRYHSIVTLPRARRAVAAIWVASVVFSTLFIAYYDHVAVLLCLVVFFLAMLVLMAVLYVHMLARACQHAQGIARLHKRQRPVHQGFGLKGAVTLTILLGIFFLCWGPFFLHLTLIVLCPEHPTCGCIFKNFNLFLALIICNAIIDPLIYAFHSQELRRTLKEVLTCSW

Turning to `CCCC[C@H](NC(=O)[C@H](CO)NC(=O)[C@H](Cc1ccc(O)cc1)NC(=O)[C@H](CO)NC(=O)[C@H](CCCCN)NC(=O)[C@H](CCCCN)NC(=O)[C@H](CCCCN)NC(=O)[C@H](CCCCN)NC(=O)[C@H](CCCCN)NC(=O)[C@H](CCCCN)NC(C)=O)C(=O)N[C@@H](CCC(=O)O)C(=O)N[C@@H](Cc1c[nH]cn1)C(=O)N[C@H](Cc1ccccc1)C(=O)N[C@@H](CCCNC(=N)N)C(=O)N[C@@H](Cc1c[nH]c2ccccc12)C(=O)NCC(=O)N[C@@H](CCCCN)C(=O)N1CCC[C@H]1C(=O)N[C@H](C(N)=O)C(C)C` [Ac(Lys)6-NDP-αMSH, Ac(Lys)6-Ser-Tyr-Ser-Nle Glu-His-(D-Phe)-Arg-Trp-Gly-Lys-Pro-Val-NH2], in assay [1], the Emax (as a rule, the maximal effect, on the per cent scale that the assay sets) was determined as 62 ± 8% and the EC50 – broadly, the concentration giving half of the maximal effect – came to 1.35 nM.

With “ACTH: Adrenocorticotropic hormone, the native ligand to the type 2 receptor (MC2r) (SYSMEHFRWGKPVGKKRRPVKVYPNGAEDESAEAFPLEF; Corticotropin; UniProt P01189 138-176, looked up)”, the “effect on ECM collagen” value in assay [2] is “statistically significant reduction in ECM collagen”.

For `CSCC[C@H](NC(=O)[C@H](CO)NC(=O)[C@H](Cc1ccc(O)cc1)NC(=O)[C@H](CO)NC(=O)[C@H](CCCCN)NC(=O)[C@H](CCCCN)NC(=O)[C@H](CCCCN)NC(=O)[C@H](CCCCN)NC(=O)[C@H](CCCCN)NC(=O)[C@H](CCCCN)NC(C)=O)C(=O)N[C@@H](CCC(=O)O)C(=O)N[C@@H](Cc1c[nH]cn1)C(=O)N[C@@H](Cc1ccccc1)C(=O)N[C@@H](CCCNC(=N)N)C(=O)N[C@@H](Cc1c[nH]c2ccccc12)C(=O)NCC(=O)N[C@@H](CCCCN)C(=O)N1CCC[C@H]1C(=O)N[C@H](C(N)=O)C(C)C` [Ac(Lys)6-αMSH], in assay [1], the Emax amounted to 72 ± 5% and a half-maximal effect (EC50) was put at 2.12 nM. Besides, in assay [3], the “maximal efficacy (Emax)” value is about 3 nM.

Take `CSCC[C@H](NC(=O)[C@H](CO)NC(=O)[C@H](Cc1ccc(O)cc1)NC(=O)[C@H](CO)NC(=O)[C@H](CCCCNC(=O)[C@H](CCCCN)NC(=O)[C@H](CCCCN)NC(C)=O)NC(C)=O)C(=O)N[C@@H](CCC(=O)O)C(=O)N[C@@H](Cc1c[nH]cn1)C(=O)N[C@@H](Cc1ccccc1)C(=O)N[C@@H](CCCNC(=N)N)C(=O)N[C@@H](Cc1c[nH]c2ccccc12)C(=O)NCC(=O)N[C@@H](CCCCN)C(=O)N1CCC[C@H]1C(=O)N[C@H](C(N)=O)C(C)C` [α-MSH analogue #1]: the “maximal efficacy (Emax)” value in assay [3] is given as about 3 nM.
